Measured values as given in ChEMBL document CHEMBL5505957 (Eur J Med Chem, 2024).
≈ marks a conversion by molar mass, not a printed value.

Columns and labels:
[1] = tested on: Human immunodeficiency virus 1; assay: microbe, parasite or virus in culture; details: Human immunodeficiency virus 1, C8166
[2] = Inhibition of Serratia marcescens Chitinase B
[3] = tested on: Rattus norvegicus; assay: Anti-inflammatory activity against carrageenan-induced paw edema in Sprague-Dawley rat assessed as inhibition of paw edema
[4] = tested on: Human immunodeficiency virus 1; assay: microbe, parasite or virus in culture; details: Human immunodeficiency virus 1, C8166; remark: listed apart in the source
[5] = biological target: T1, Protein O-GlcNAcase (Homo sapiens, UniProt O60502)
T1 sequence (O60502 whole entry): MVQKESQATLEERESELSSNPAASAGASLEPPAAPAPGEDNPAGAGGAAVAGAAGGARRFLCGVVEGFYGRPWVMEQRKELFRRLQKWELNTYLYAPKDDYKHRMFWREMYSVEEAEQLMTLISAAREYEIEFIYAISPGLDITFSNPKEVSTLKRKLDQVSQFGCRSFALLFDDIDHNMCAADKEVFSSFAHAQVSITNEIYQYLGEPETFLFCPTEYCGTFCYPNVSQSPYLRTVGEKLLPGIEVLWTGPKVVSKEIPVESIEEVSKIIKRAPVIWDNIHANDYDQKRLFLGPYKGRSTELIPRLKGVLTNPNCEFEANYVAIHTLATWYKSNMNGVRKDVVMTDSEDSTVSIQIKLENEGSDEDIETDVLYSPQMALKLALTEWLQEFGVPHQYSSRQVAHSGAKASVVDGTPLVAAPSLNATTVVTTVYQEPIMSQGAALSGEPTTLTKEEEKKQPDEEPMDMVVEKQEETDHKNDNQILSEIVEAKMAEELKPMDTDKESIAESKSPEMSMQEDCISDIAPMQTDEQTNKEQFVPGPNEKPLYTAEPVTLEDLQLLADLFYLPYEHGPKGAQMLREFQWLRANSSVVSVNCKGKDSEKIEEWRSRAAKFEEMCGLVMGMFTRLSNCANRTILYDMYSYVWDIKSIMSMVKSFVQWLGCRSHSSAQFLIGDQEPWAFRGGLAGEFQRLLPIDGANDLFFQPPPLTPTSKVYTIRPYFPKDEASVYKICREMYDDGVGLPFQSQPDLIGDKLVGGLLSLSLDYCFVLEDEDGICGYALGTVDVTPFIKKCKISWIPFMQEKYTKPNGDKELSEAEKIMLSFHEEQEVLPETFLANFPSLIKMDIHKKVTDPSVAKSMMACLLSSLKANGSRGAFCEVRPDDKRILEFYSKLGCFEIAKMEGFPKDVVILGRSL

[6] = biological target: T2, Human immunodeficiency virus type 1 protease (Human immunodeficiency virus 1, UniProt Q72874)
[7] = biological target: Replicase polyprotein 1ab (Severe acute respiratory syndrome coronavirus 2, UniProt P0DTD1)
[8] = Cytotoxicity against African green monkey Vero E6 cells assessed as reduction in cell viability measured after 72 hrs by MTS assay
[9] = tested on: Human immunodeficiency virus 1; assay: Anti-HIV activity against wild type HIV-1 IIIB infected in human MT4 cells assessed as inhibition of virus-induced cytopathic effect incubated for 5 days by MTT assay; details: Human immunodeficiency virus 1, IIIB, MT4, 120 h
[10] = Cytotoxicity against MDCK cells assessed as reduction in cell viability incubated for 48 hrs by MTT assay; details: dog
[11] = tested on: Aspergillus fumigatus; assay: Antimicrobial activity against Aspergillus fumigatus assessed as fungal growth inhibition
[12] = tested on: Aspergillus fumigatus; assay: Antifungal activity against Aspergillus fumigatus by CLSI based broth microdilution method
[13] = Inhibition of Influenza A virus H1N1 neuraminidase
[14] = biological target: T2, Human immunodeficiency virus type 1 protease; assay: Binding affinity to HIV-1 protease assessed as inhibition constant
[15] = tested on: Human immunodeficiency virus 1; assay: Antiviral activity against HIV-1 infected in human MT4 cells assessed as inhibition of virus-induced cytopathic effect measured after 5 days by spectrophotometric MTT assay; details: Human immunodeficiency virus 1, MT4, 120 h
[16] = biological target: Cholinesterase (Equus caballus, UniProt P81908); assay: Inhibition of equine serum BuChE using butyrylthiocholine chloride as substrate by Ellman's method
Cholinesterase, sequence (P81908 whole entry): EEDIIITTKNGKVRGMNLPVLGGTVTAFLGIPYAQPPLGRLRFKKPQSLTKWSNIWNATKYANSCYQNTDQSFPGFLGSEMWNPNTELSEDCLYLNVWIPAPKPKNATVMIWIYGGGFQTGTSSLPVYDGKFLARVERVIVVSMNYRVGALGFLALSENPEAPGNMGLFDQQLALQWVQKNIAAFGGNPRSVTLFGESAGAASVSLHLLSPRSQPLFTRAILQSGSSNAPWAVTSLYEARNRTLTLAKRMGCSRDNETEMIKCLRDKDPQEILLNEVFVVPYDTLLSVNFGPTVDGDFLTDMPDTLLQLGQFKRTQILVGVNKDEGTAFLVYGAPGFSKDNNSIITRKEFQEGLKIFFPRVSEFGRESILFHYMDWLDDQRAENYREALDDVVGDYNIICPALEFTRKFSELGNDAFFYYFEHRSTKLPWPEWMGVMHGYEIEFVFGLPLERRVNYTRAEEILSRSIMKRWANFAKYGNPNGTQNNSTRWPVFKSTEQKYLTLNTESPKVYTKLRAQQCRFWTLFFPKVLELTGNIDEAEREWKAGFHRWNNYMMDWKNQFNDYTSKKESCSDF

[17] = Inhibition of Serratia marcescens Chitinase A
[18] = biological target: T3, M-phase inducer phosphatase 3 (Homo sapiens, UniProt P30307); assay: Inhibition of full-length recombinant human CDC25C incubated for 5 to 8 mins by fluorescence based assay
T3 sequence (P30307 whole entry): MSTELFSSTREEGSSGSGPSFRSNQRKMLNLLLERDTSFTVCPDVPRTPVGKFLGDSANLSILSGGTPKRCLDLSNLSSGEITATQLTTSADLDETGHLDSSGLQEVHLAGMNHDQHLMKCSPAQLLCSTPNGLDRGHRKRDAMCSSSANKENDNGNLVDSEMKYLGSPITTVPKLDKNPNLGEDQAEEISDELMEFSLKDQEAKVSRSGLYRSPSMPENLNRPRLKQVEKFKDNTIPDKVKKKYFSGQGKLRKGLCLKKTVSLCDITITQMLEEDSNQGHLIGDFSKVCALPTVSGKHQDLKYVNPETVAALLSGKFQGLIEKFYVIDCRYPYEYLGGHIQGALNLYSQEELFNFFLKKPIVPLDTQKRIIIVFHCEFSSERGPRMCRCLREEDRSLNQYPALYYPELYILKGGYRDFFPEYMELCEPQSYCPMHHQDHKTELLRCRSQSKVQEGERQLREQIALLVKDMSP

## COc1ccc(S(=O)(=O)N(CC(C)C)C[C@@H](O)[C@H](Cc2ccccc2)n2cc(CNC(=O)N[C@H]3c4ccccc4C[C@H]3O)nn2)cc1
[1]
  IC50: 46 nM

## CNC(=O)NC(=O)NCCC[C@@H](NC(=O)CN)C(=O)N(Cc1ccccc1)Cc1ccccc1
[2]
  IC50: 580 nM

## Cc1cc(-n2cc(-c3ccc(F)cc3)nn2)n(-c2ccc(S(C)(=O)=O)cc2)n1
[3]
  ED50: 0.44 mg/kg

## COc1ccc(S(=O)(=O)N(CC(C)C)C[C@@H](O)[C@H](Cc2ccccc2)n2cc(CNC(=O)c3ccc(CNC(=O)OC(C)(C)C)cc3)nn2)cc1
[4]
  IC50: 17 nM
[1]
  IC50: 52 nM

## Cc1cc(-n2cc(-c3ccc(N)cc3)nn2)n(-c2ccc(S(C)(=O)=O)cc2)n1
[3]
  ED50: 0.12 mg/kg

## CNC(=O)NC(=N)NCCC[C@@H](NC(=O)Cn1nncc1CO/N=C/c1ccnc2ccccc12)C(=O)N(Cc1ccccc1)Cc1ccccc1
[2]
  IC50: 22 nM

## CO[C@@H]1O[C@H](CO)[C@@H](O)[C@H](O)[C@H]1n1cc(CNc2ccccc2)nn1
[5]
  IC50: 520 nM

## COc1ccc(S(=O)(=O)N(CC(C)C)C[C@@H](O)[C@H](Cc2ccccc2)n2cc(CNC(=O)c3ccncc3)nn2)cc1
[6]
  IC50: 10 nM

## CC1=NN(c2ccc(Cl)cc2)C(=O)/C1=C\c1ccc(OCc2cn(CC(=O)NCc3ccc(C(=O)O)cc3)nn2)cc1
[7]
  IC50: 3160 nM
[8]
  IC50 at 72 h: 22100 nM

## COC(=O)c1ccc(-n2cc(-c3cc(C)c(Oc4ccnc(Nc5ccc(C#N)cc5)n4)c(C)c3)nn2)cc1
[9]
  IC50: 13 nM

## CO[C@@H]1O[C@H](CO)[C@@H](O)[C@H](O)[C@H]1n1cc(CCc2ccccc2)nn1
[5]
  IC50: 500 nM

## Cc1[nH]c(=O)[nH]c(=O)c1CCCc1cn(C2OC(CO)C(O)C2O)nn1 (configuration not stated)
[10]
  CC50 at 48 h: 79000 nM

## CO[C@@H]1O[C@H](CO)[C@@H](O)[C@H](O)[C@H]1n1cc(COc2ccccc2)nn1
[5]
  IC50: 720 nM

## C=CCc1ccc(OCc2cn([C@H]3O[C@H](COC(C)=O)[C@@H](OC(C)=O)[C@H](OC(C)=O)[C@H]3OC(C)=O)nn2)c(OC)c1
[11]
  MIC: 10.9 µM (≈ 6.25 µg/mL)
[12]
  IC50: 5420 nM

## COC(=O)[C@@H](C)NP(=O)(OCC1OC(n2cc(CN3CCC(=O)NC3=O)nn2)C(O)C1O)Oc1ccccc1 (some centres not stated)
[13]
  IC50: 25000 nM

## COc1ccc(S(=O)(=O)N(CC(C)C)C[C@@H](O)C(Cc2ccccc2)n2cc(COC(=O)NC3c4ccccc4C[C@H]3O)nn2)cc1 (single isomer, unassigned)
[6]
  IC50: 6 nM
[14]
  Ki: 1.7 nM

## Cc1c(Cc2c(Cl)cccc2Cl)nc(SCc2cn(Cc3ccc(S(N)(=O)=O)cc3)nn2)[nH]c1=O
[15]
  EC50: 3220 nM

## CC(=O)O[C@H]1[C@H](OCc2cn(CC3=NCCS3)nn2)OC[C@@H](OC(C)=O)[C@H]1OC(C)=O
[13]
  IC50: 1640 nM

## O=C(CCCCC1CCSS1)NCc1cn(CCCCOc2ccc3c(c2)OCCC3=O)nn1 (configuration not stated)
[16]
  IC50: 7550 nM

## CNC(=O)NC(=N)NCCC[C@@H]1NC(=O)[C@@H](C)NC(=O)C[C@@H](C(=O)O)NC(=O)C[C@@H](C(=O)O)NC(=O)[C@H](Cc2ccccc2)N(C)C1=O [ARGIFIN]
[2]
  IC50: 6400 nM
[17]
  IC50: 25 nM

## COC(=O)[C@@H](NC(=O)OCc1cn([C@@H](Cc2ccccc2)[C@H](O)CN(CC(C)C)S(=O)(=O)c2ccc(OC)cc2)nn1)c1ccccc1
[6]
  IC50: 10 nM

## CC(NC1=C(Cl)C(=O)c2cccnc2C1=O)c1cn(Cc2ccc(CO)cc2)nn1 (configuration not stated)
[18]
  IC50: 60 nM
